# Results: patent US9763905B2, “Therapeutic target for the treatment of cancers and related therapies and methods” (CHILDREN'S MEDICAL CENTER CORPORATION, priority 2013, dated 2017)
# Entries after “also recorded” stand apart in the source; their conditions may differ. Read-outs that look alike come from different tables or passages of the source.
# Assays:
# [1] = system: human foreskin fibroblast (Hs27) control cell line; experiment: Cell viability assay (Cell Titer Blue), Examples 1, 3, 4; type: cell-based; details: DHA 25-250 μM 144 hours, GW9508 25-150 μM 72 hours, TAK-875 0-0.4 μM
# Method: (§1) The human foreskin fibroblast (Hs27) and human melanoma (A2058, A375, SK-Mel 3) cell lines were purchased from ATCC (Manassas Va.). Cells were plated in 48-well plates at a concentration of 7.5×10^3cells/well in either DMEM (Hs27, A2058, A375; Invitrogen/GIBCO, Grand Island N.Y.) or McCoy's 5a medium (SK-Mel 3; Invitrogen/GIBCO) supplemented with 10% FBS (Invitrogen/GIBCO) and incubated at 37° C. in a humidified atmosphere with 5% CO2. After 24 hours the medium was replaced with either DMEM (HS27, A2058, A375) or McCoy's 5a Medium (SK-Mel 3) containing 1% heat […] (Invitrogen/GIBCO) and 0.1% FA-free BSA (Invitrogen/GIBCO) with various concentrations of DHA (Martek, Columbia Md.) prepared in 4 μL of ETOH. DHA was provided at 25-250 μM, and in the studies that follow GW9508 was provided at 25-150 μM and TAK-875 was provided at 0-0.4 μM. Controls were treated with 4 μL of ETOH. All concentrations were tested in quadruplicate.
# (§2) Following 144 hours of DHA treatment cells were trypsinized (Trypsin-EDTA; Invitrogen/GIBCO) and viable cells were counted using an absorbance-based cell viability assay (Cell Titer Blue Cell Viability Assay; Promega, Madison Wis.). During the treatment, medium was changed at 72 hours for the DHA studies. Cell counts were reported as a percent of the control cell count.
# (§3) Human foreskin fibroblast (Hs27) and human melanoma (A2058, A375, SK-Mel 3) cell lines (ATCC, Manassas Va.) were plated in 48-well plates at a concentration of 7.5×10^3cells/well in either DMEM (Hs27, A2058, A375; Invitrogen/GIBCC, Grand Island N.Y.) or McCoy's 5a Medium (SK-Mel 3; Invitrogen/GIBCO) supplemented with 10% FBS (Invitrogen/GIBCO) and incubated at 37° C. in a humidified atmosphere with 5% CO2. After 24 hours the medium was replaced with either DMEM (HS27, A2058, A375) or McCoy's 5a Medium (SK-Mel 3) containing 1% heat inactivated-FBS (Invitrogen/GIBCO) and 0.1% FA-free BSA (Invitrogen/GIBCO) with various concentrations of GW9508 (Cayman Chemical, Ann Arbor Mich.) prepared in 4 μL of ETOH, as described in Example 1. Controls were treated with 4 μL of ETOH. All concentrations were tested in quadruplicate.
# (§4) Following 72 hours of treatment (GW9508) cells were trypsinized (Trypsin-EDTA; Invitrogen/GIBCO) and viable cells were counted using an absorbance-based cell viability assay (Cell Titer Blue Cell Viability Assay; Promega, Madison Wis.). Cell counts are reported as a percent of the control cell count.
# (§5) Given the high expression of GPR40 and the negligible expression of GPR120 by the human melanoma cells evaluated, further studies were performed using the selective, potent and orally bioavailable GPR40 agonist, TAK-875 (Selleck Chemicals) consistent with the methods disclosed in Examples 1 and 3. In particular, such studies were performed to evaluate the ability of TAK-875 to exert an inhibitory effect on human melanoma cell lines in vitro relative to a control fibroblast cell line (Hs27) and the human breast cancer cell line MCF-7, as well as to further evaluate the mechanisms via which compounds such as omega-3 fatty acids exert their cellular effects on human melanoma.
# [2] = system: control human foreskin fibroblast (Hs27) cell line; experiment: Cell viability assay (Cell Counting Kit-8), Example 5; type: cell-based; details: DHA 0-250 μM, TAK-875 0-0.4 μM, 3 and 6 days
# Method: (§6) Neuroblastoma cell lines used to perform the present studies include: ShSY5Y, IMR-32, SK-NSH, SK-NAS. Melanoma cell lines used include: A2058, A375, and SK-Mel3. Medullary thyroid carcinoma cell line used includes: TT. Malignant peripheral nerve sheath tumor used includes: sNF94.3. Control cell lines used included: human foreskin fibroblast line (Hs27), breast cancer cell lines (MCF-7 and […]), human umbilical vein endothelial cells (HUVEC) and human melanocytes (HMn). ShSY5Y was cultured in MEM/F12 containing 10% heat inactivated fetal bovine serum (FBS) (Invitrogen/GIBCO, Grand Island, N.Y.). IMR-32 was cultured in MEM containing 10% FBS (Invitrogen/GIBCO). SK-NSH was cultured in RPMI-1640 containing 10% FBS (Invitrogen/GIBCO). SK-Mel 3 was cultured in McCoy's 5a containing 10% FBS (Invitrogen/GIBCO). TT was cultured in F-12K containing 10% FBS (ATCC, Manassas, Va.). […] was cultured in Leibovitz's L-15 containing 10% FBS (ATCC). HUVEC was cultured with EGM-2 Bullet Kit (Lonza, Hopkinton, Mass.). HMn were cultured in MGM-4 (Lonza). All other cell lines were cultured in DMEM with 10% FBS (Invitrogen/GIBCO). Cells were incubated at 37° C. in a humidified atmosphere with 5% CO2. Cells were plated in 96-well plates to approximately 50% confluence prior to initial treatment.
# (§7) Cells treated with the GPR40 agonist DHA had growth media that was replaced with each respective media containing 1% FBS and 0.1% FA-free BSA with varying concentrations of DHA (Cayman Chemical, Ann Arbor, Mich.) ranging from 0-250 μM solubilized in ethanol (Pharmco-Aaper, Brookfield, Conn.). Cells treated with the GPR40 agonist TAK-875 had growth media that was replaced with each respective media containing 10% FBS with varying concentration of TAK-875 (Selleck Chemicals, Houston, Tex.) ranging from 0-0.4 μM solubilized in dimethyl sulfoxide (Sigma-Aldrich, St. Louis, Mo.). Following 72 hours (TAK-875) or 144 hours (DHA) of treatment, viable cells were quantified using an absorbance-based cell viability assay (Cell Counting Kit-8, Dojindo, Kumamoto, Japan).
# [3] = system: A2058 human melanoma cell line; experiment: Cell viability assay (Cell Titer Blue), Examples 1, 3, 4; type: cell-based; details: DHA 25-250 μM 144 hours, GW9508 25-150 μM 72 hours, TAK-875 0-0.4 μM
# Method: as §1, §2, §3, §4, §5
# [4] = system: A375 human melanoma cell line; experiment: as above; type: cell-based; details: DHA 25-250 μM 144 hours, GW9508 25-150 μM 72 hours, TAK-875 0-0.4 μM
# Method: as §1, §2, §3, §4, §5
# [5] = system: SK-Mel3 human melanoma cell line; experiment: as above; type: cell-based; details: DHA 25-250 μM 144 hours, GW9508 25-150 μM 72 hours, TAK-875 0-0.4 μM
# Method: as §1, §2, §3, §4, §5
# [6] = system: human breast cancer cell line MCF-7; experiment: Cell viability assay, Example 4; type: cell-based; details: TAK-875
# [7] = system: human melanoma (A2058) xenograft; experiment: Murine subcutaneous xenograft model of human melanoma, established tumors, oral TAK-875; type: in vivo, SCID mice; details: 100 mg/kg/day oral, N=7/group
# Method: The subcutaneous murine xenograft model of human melanoma was created in 6-week old severe combined immunodeficiency (SCID) mice (Jackson Laboratories, Bar Harbor, Me.) by subcutaneous injection of 1×10^6 human melanoma cells (A2058) in […] of PBS (Invitrogen/GIBCC) into the left flank of each animal. Animal weights and tumor dimensions were measured every 48 hours. Tumor volume was calculated using the following formula: volume=length×width^2×0.52. In accordance with the methods disclosed in Example 2, a murine subcutaneous xenograft model of human melanoma was prepared and used to test the effect of once daily oral TAK-875 on the growth of established melanoma tumors in vivo. Animals were treated daily for 14 days with either a control solution or an oral solution of TAK-875 (100 mg/kg/day) from the time their tumor volume reached 200 mm^3. […] Most importantly the change in tumor volume from start of drug treatment to completion of 14 days of treatment, was 77% lower in the TAK-875 group compared to placebo (P=0.04, FIG. 3G).
# [8] = system: IMR-32 neuroblastoma cell line; experiment: Cell viability assay (Cell Counting Kit-8), Example 5; type: cell-based, human; details: DHA 0-250 μM, TAK-875 0-0.4 μM, 3 and 6 days
# Method: as §6, §7
# [9] = system: SK-NAS neuroblastoma cell line; experiment: as above; type: cell-based, human; details: DHA 0-250 μM, TAK-875 0-0.4 μM, 3 and 6 days
# Method: as §6, §7
# [10] = system: SK-NSH neuroblastoma cell line; experiment: as above; type: cell-based, human; details: DHA 0-250 μM, TAK-875 0-0.4 μM, 3 and 6 days
# Method: as §6, §7
# [11] = system: ShSY5Y neuroblastoma cell line; experiment: as above; type: cell-based, human; details: DHA 0-250 μM, TAK-875 0-0.4 μM, 3 and 6 days
# Method: as §6, §7
# [12] = system: A2058 human melanoma cell line; experiment: as above; type: cell-based; details: DHA 0-250 μM, TAK-875 0-0.4 μM, 6 days
# Method: as §6
# (§8) Cells treated with the GPR40 agonist DHA had growth media that was replaced with each respective media containing 1% FBS and 0.1% FA-free BSA with varying concentrations of DHA (Cayman Chemical, Ann Arbor, Mich.) ranging from 0-250 μM solubilized in ethanol (Pharmco-Aaper, Brookfield, Conn.). Cells treated with the GPR40 agonist TAK-875 had growth media that was replaced with each respective media containing 10% FBS with varying concentration of TAK-875 (Selleck Chemicals, Houston, Tex.) ranging from 0-0.4 μM solubilized in dimethyl sulfoxide (Sigma-Aldrich, St. Louis, Mo.). […]
# [13] = system: A375 human melanoma cell line; experiment: as above; type: cell-based; details: DHA 0-250 μM, TAK-875 0-0.4 μM, 6 days
# Method: as §6, §8
# [14] = system: SK-Mel 3 human melanoma cell line; experiment: as above; type: cell-based; details: DHA 0-250 μM, TAK-875 0-0.4 μM, 6 days
# Method: as §6, §8
# [15] = system: human medullary thyroid carcinoma cell line (TT); experiment: as above; type: cell-based; details: DHA 0-250 μM, TAK-875 0-0.4 μM, 3 and 6 days
# Method: as §6, §7
# human melanocytes (HMn) = experiment: as above; type: cell-based; details: HMn primary melanocytes; DHA 0-250 μM, TAK-875 0-0.4 μM; 3 and 6 days
# Method: as §6, §7
# [16] = system: human umbilical vein endothelial cells (HUVEC); experiment: as above; type: cell-based; details: DHA 0-250 μM, TAK-875 0-0.4 μM, 3 and 6 days
# Method: as §6, §7
# [17] = system: malignant peripheral nerve sheath tumor (MPNST) (sNF94.3) cell line; experiment: as above; type: cell-based; details: DHA 0-250 μM, TAK-875 0-0.4 μM, 3 and 6 days
# Method: as §6, §7
# [18] = system: breast cancer cell line MCF-7; experiment: as above; type: cell-based, human; details: TAK-875, 6 days
# Method: as §6, with “treatment. […]” for “treatment.”
# [19] = system: breast cancer cell line MDA-MB-321; experiment: as above; type: cell-based, human; details: TAK-875, 6 days
# Method: as §6, with “treatment. […]” for “treatment.”
# [20] = healthy human subjects, very high doses; cited from earlier work
# [21] = rat, in vivo; cited from earlier work
smiles,measurement,setting,value
"CC/C=C\C/C=C\C/C=C\C/C=C\C/C=C\C/C=C\CCC(=O)O [DHA, docosahexaenoic acid]",effect on growth / toxicity in control fibroblasts,[1],no growth inhibition
same,cell viability / toxicity in control cell line,[2],Little to no effect; also recorded: little effect; also recorded: Toxicity was observed in the control Hs27 cell line at high concentrations
O=C(O)CCc1ccc(NCc2cccc(Oc3ccccc3)c2)cc1 [GW9508],effect on growth / viable cell count (percent of control),[3],profound inhibitory effect on the growth
same,effect on growth / viable cell count (percent of control),[4],profound inhibitory effect on the growth
same,effect on growth / viable cell count (percent of control),[5],profound inhibitory effect on the growth
same,effect on growth / toxicity in control fibroblasts,[1],not toxic
Cc1cc(OCCCS(C)(=O)=O)cc(C)c1-c1cccc(COc2ccc3c(c2)OC[C@H]3CC(=O)O)c1 [TAK-875],effect on growth / viable cell count (percent of control),[3],robust and selective cytotoxic effect
same,effect on growth / viable cell count (percent of control),[4],robust and selective cytotoxic effect
same,effect on growth / viable cell count (percent of control),[5],robust and selective cytotoxic effect
same,effect on growth / toxicity in control fibroblasts,[1],did not influence the growth
same,effect on growth,[6],did not influence the growth
same,tumors smaller in volume versus placebo,"[7]; 14 days, from tumor volume 200 mm^3, P=0.03",62%
same,tumors smaller in weight versus placebo,"[7]; 14 days, from tumor volume 200 mm^3, P=0.07",46%
same,animal weights versus placebo,[7]; 14 days,not significantly different
same,"change in tumor volume from start of drug treatment to completion of 14 days, lower compared to placebo",[7]; P=0.04,77%
same,cell viability,[8],significantly attenuated viability
same,cell viability,[9],significantly attenuated viability
same,cell viability,[10],significantly attenuated viability
same,cell viability,[11],significantly attenuated viability
same,cell viability,[12],significant decrease in cell viability
same,cell viability,[13],significant decrease in cell viability
same,cell viability,[14],significant decrease in cell viability
same,cell viability / toxicity in control cell line,[2],Little to no effect; also recorded: little effect; also recorded: Toxicity was observed in the control Hs27 cell line at high concentrations
same,cell viability,[15],pronounced decrease
same,cell viability,human melanocytes (HMn),dramatic decrease in cell viability
same,cell viability,[16],minimal change in viability
same,cell viability,[17],pronounced effect
same,cell viability,[18],decrease in cell viability was observed at high concentrations
same,cell viability,[19],decrease in cell viability was observed at high concentrations
same,safety and tolerability,[20],safe and well tolerated
same,safety and tolerability,[21],safe and well tolerated
